In publication PMC9610434, “Discovery of 2′,6-Bis(4-hydroxybenzyl)-2-acetylcyclohexanone, a Novel FtsZ Inhibitor” (Molecules, 2022):
Read-outs that look alike come from different tables or passages of the source.

Key:
Bacillus subtilis 168 [1] = tested on: Bacillus subtilis 168; parameters: method as in PMID 28002947; conditions: cited from earlier work
[2] = biological target: T1, S. pneumoniae FtsZ (SpnFtsZ) (Streptococcus pneumoniae, UniProt A0A0H2ZNE0); conditions: cited from earlier work
Bacillus subtilis 168 [3] = assay: Growth inhibition / MIC by agar dilution, Bacillus subtilis 168; type: cell-based
Method: (§1) The Minimum Inhibitory Concentration (MIC) was determined as described previously, following the agar dilution method. From an overnight culture of Bacillus subtilis 168 (Bs 168), 2% inoculation was performed to a fresh tube containing Luria Broth. When the bacteria reached an O.D600 = 0.4, the culture was serially diluted to a dilution factor of 10^4. Then, 20 μL of the diluted culture was spotted on plates containing different concentrations of 3 (0, 1, 3, 5, 7, 9, 10, 11, 12, 13 μM) and incubated, at 37 °C, for […], after which the colonies were counted. Similar procedure was performed for Streptococcus pneumoniae TIGR4. Bacteria were grown in Todd–Hewitt Yeast Broth up to 0.4 OD600 and serially diluted. Upon addition on to BHI agar plates containing different concentrations of 3 (0.5, 1, 1.5, 2, 3, 5, 7, 10 μM), the colonies were incubated for 24 h, at 37 °C, with 5% CO2. […] IC50 was determined by plotting percentage inhibition versus log of concentration of drug, using GraphPad Prism 7 software.

[4] = tested on: Streptococcus pneumoniae TIGR4; assay: Growth inhibition / MIC by agar dilution, Streptococcus pneumoniae TIGR4; type: cell-based; conditions: for MIC: Streptococcus pneumoniae
Method: as §1

[5] = Cytotoxicity testing in mouse skin L929 cells; type: cell-based; conditions: read-out: GI50 (concentration for 50% cell growth inhibition)
Z-ring in Bs 168 cells = assay: Immunostaining for Z-ring and nucleoid, Bs 168; type: cell-based, Bacillus subtilis; conditions: Bs 168, 8 μM, 10 min
Method: (§2) Immunostaining of Bs 168 cells was performed as described previously. Briefly, from an overnight culture of Bs 168, 2% inoculation was performed to a fresh tube containing Luria Broth. When the bacteria reached an O.D600 = 0.4, the culture was divided into two fractions. To one fraction, 8 μM 3 was added, and to another, an equal volume of DMSO. The cells were incubated at 37 °C under shaking conditions for 10 min. Cells were then fixed for 30 min with 2.8% formaldehyde and 0.04% glutaraldehyde. Cells were permeabilized using 0.1% Triton X-100 and then treated with 1 mg/mL lysozyme and 5 mM EDTA for 45 min. Treatment with 0.5% BSA for 30 min was performed to block non-specific binding sites. Then, 1 h treatment each with primary antibody, anti-FtsZ antibody raised in rabbit (1:50 dilution) and secondary antibody (1:400), Alexa Fluor^TM 594 goat anti-rabbit IgG (H+L) was performed. Nucleoid staining was performed with 1 µg/mL 4′-6-diamidino-2-phenylindole (DAPI) for 20 min. Images were captured using Confocal Laser Scanning Microscope—Carl Zeiss, LSM 780. Similar procedure was followed for Sp TIGR4, which was treated with 2 μM 3 for 1 h before following the above immunostaining procedure.

Z-ring in Sp TIGR4 = assay: Immunostaining for Z-ring and nucleoid, Sp TIGR4; type: cell-based, Streptococcus pneumoniae; conditions: Sp TIGR4, 2 μM, 1 h
Method: as §2

membrane of Bs 168 cells = assay: Membrane staining of live cells with FM 4-64; type: cell-based, Bacillus subtilis; conditions: Bs 168, 8 μM, 10 min
Method: Membrane staining of live Bs 168 cells was performed using FM 4–64 stain [28]. Bs 168 cells were grown as described above and treated with 8 μM 3 or equivalent volume of DMSO for 10 min. Cells were pelleted down and resuspended in PBS containing 10 μg/mL FM-4–64 dye. After incubation for another 10 min under shaking conditions in the dark, the cells were washed with PBS to remove excess dye. The cells were then mounted on the slide pre-coated with poly-L-lysine and covered with a coverslip. Images were captured in Confocal Laser Scanning Microscope—Carl Zeiss, LSM 780.

[6] = tested on: S. pneumoniae TIGR4 cells; assay: Scanning electron microscopy of cell morphology; type: cell-based, Streptococcus pneumoniae; conditions: Sp TIGR4, 2 μM, 1 h, SEM
Method: Sp TIGR4 was grown as described above and treated with 2 μM 3 or equivalent volume of DMSO for 1 h. The cells were then fixed with 2.8% formaldehyde and 0.04% glutaraldehyde and resuspended in PBS as described earlier. A small volume (5 μL) was spotted on an aluminium foil and allowed to air dry completely. Images were captured using Field Emission Gun-Scanning Electron Microscope (FEG-SEM) JSM-7600F.

[7] = biological target: T1, S. pneumoniae FtsZ (SpnFtsZ); assay: Binding to SpnFtsZ by tryptophan fluorescence
Method: The binding of 3 to SpnFtsZ was assessed using tryptophan fluorescence. The decrease in the fluorescence intensity of SpnFtsZ in the presence of 3 was measured. Then, 2 μM of SpnFtsZ in 50 mM PIPES pH 7.4, 50 mM KCl, was incubated with different concentrations of 3 (0.2, 0.5, 1, 1.5, 2, 3, 4, 5, 7, 10), at 25 °C, for 10 min. The fluorescence spectra were measured at an emission range of 310 nm to 410 nm, after excitation at 295 nm in JASCO FP-8300 spectrofluorometer. Due to the absorbance of 3 at 340 nm, inner filter correction was performed using the below equation:(1) Fcorrected=Fobserved∗antilog ODex+ODem/2
The binding constant, Kd, was determined using the following equation:(2) ∆F=∆Fmax×L/Kd+L
ΔF is the change in the fluorescence intensity of SpnFtsZ, ΔFmax is the maximal change in the fluorescence of SpnFtsZ when the receptor site is fully occupied, and [L] is the concentration of 3.

SpnFtsZ [8] = assay: FtsZ polymerization by light scattering at 400 nm; type: biochemical, Streptococcus pneumoniae; conditions: 10 μM SpnFtsZ, 1 mM GTP, increasing concentration
Method: SpnFtsZ (10 μM) in 50 mM PIPES pH 7.4, 50 mM KCl and 5 mM MgCl2 (PKM) buffer was incubated with different concentrations of 3 (0, 1, 2, 3, 5, 6, 7) for 20 min, at 25 °C. After the addition of 1 mM GTP, the polymerization was monitored for 600 s, at 37 °C, using light scattering at 400 nm in a JASCO FP-8300 spectrofluorometer.

SpnFtsZ [9] = assay: FtsZ sedimentation assay; type: biochemical, Streptococcus pneumoniae; conditions: 10 μM compound, 10 μM SpnFtsZ, p = 0.02
Method: SpnFtsZ (10 μM) in PKM buffer was incubated with different concentrations of 3 (0.5, 1, 3, 6, 10) for 20 min at 25 °C. The reaction mixture was allowed to polymerize by adding 1 mM GTP and incubated for 600 s, at 37 °C. The mixture was then subjected to ultra-centrifugation at 60,000 RPM for 30 min at 30 °C. The supernatant was collected and quantified using Bradford’s reagent. The amount of FtsZ present in the pellet was assessed by subtracting the supernatant concentration from the total protein [30].

SpnFtsZ [10] = assay: Transmission electron microscopy of SpnFtsZ filaments; type: biochemical, Streptococcus pneumoniae; conditions: 10 μM compound
Method: SpnFtsZ (10 μM) in PKM buffer was incubated without and with 10 μM 3 for 20 min, at 25 °C. The mixture was then polymerized by the addition of 1 mM GTP for 200 s, at 37 °C. Samples for EM were prepared on a fresh carbon–formvar-coated copper EM grid according to a previously described method. Imaging was performed the next day using JEOL JEM 1220 HRTEM (200 kV). ImageJ software was used to determine the length of the FtsZ filaments.

SpnFtsZ [11] = assay: Atomic force microscopy of SpnFtsZ filaments; type: biochemical, Streptococcus pneumoniae; conditions: 10 μM compound, 4 μM SpnFtsZ; control filaments 9.02 ± 5.2 nm
Method: Then, 4 μM SpnFtsZ in PKM buffer was incubated with or without 10 μM 3, for 20 min, at 25 °C. Upon addition of 1 mM GTP, FtsZ was polymerized for 300 s, at 37 °C. AFM samples were prepared according to a previously described method. Then, 20 μL of each sample was added onto the mica sheet and allowed to absorb on it for 15 min. The sheet was then washed with MilliQ and allowed to dry overnight. The samples were imaged the next day using MFP-3D BIO, Asylum Research USA.

[12] = biological target: T2, FtsZ from Bacillus subtilis (BsFtsZ) (Bacillus subtilis, UniProt P17865); assay: Transmission electron microscopy of BsFtsZ filaments; type: biochemical; conditions: 20 μM compound, 5 μM BsFtsZ
T2 construct: made in house
T2 sequence (P17865 whole entry): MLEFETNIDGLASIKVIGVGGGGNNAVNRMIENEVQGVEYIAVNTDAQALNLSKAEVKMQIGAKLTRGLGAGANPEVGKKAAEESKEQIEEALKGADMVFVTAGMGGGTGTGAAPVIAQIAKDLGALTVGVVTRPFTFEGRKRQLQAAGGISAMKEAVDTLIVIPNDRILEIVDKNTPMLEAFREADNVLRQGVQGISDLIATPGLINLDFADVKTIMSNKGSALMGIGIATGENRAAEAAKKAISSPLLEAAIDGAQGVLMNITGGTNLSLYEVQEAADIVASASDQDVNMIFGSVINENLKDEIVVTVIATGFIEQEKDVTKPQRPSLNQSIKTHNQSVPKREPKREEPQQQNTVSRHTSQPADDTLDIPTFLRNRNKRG
Method: In another experiment, BsFtsZ (5 μM) in PKM buffer was incubated without and with 20 μM 3 for 20 min, at 25 °C. The mixture was then polymerized by the addition of 1 mM GTP for 600 s, at 37 °C. Samples for imaging were prepared using the same procedure described above.

tubulin = assay: Tubulin polymerization assay; type: biochemical, goat; conditions: 13 μM tubulin, light scattering at 350 nm
Method: Streptococcus pneumoniae FtsZ (SpnFtsZ) and Bacillus subtilis FtsZ (BsFtsZ) were purified as described previously. Tubulin from goat brain was purified as described previously. The concentration of all the proteins was estimated using Bradford’s reagent.
Tubulin polymerization was performed as described previously. Purified tubulin (13 μM) in PEM buffer (50 mM PIPES pH 6.8, 3 mM MgCl2 and 1 mM EGTA) + 10% DMSO was incubated with 3 for 10 min on ice. Then, 1 mM GTP was added to the mixture, and polymerization was monitored by light scattering in SoftMax Spectra Multi Plate reader for 30 min, at 37 °C. The excitation and emission wavelengths were set to 350 nm.

alkaline phosphatase = assay: Alkaline phosphatase activity assay; type: biochemical; conditions: 5, 10 and 20 μM, PNPP substrate
Method: Alkaline phosphatase assay was performed as described previously. Then, 2 U/mL Alkaline Phosphatase enzyme in glycine NaOH buffer, pH 10.4 with 100 mM glycine, 1 mM MgCl2, and 0.1 mM ZnCl2 was incubated with different concentrations (5, 10, and 20 μM) of 3 for 10 min on ice. Immediately after the addition of 250 μM para-4-nitrophenyl phosphate (PNPP), the absorbance at 410 nm was measured for 700 s in a JASCO V-730 spectrophotometer.

S. pneumoniae = tested on: S. pneumoniae; parameters: method as in PMID 18801997; conditions: cited from earlier work

T1 sequence (A0A0H2ZNE0 whole entry): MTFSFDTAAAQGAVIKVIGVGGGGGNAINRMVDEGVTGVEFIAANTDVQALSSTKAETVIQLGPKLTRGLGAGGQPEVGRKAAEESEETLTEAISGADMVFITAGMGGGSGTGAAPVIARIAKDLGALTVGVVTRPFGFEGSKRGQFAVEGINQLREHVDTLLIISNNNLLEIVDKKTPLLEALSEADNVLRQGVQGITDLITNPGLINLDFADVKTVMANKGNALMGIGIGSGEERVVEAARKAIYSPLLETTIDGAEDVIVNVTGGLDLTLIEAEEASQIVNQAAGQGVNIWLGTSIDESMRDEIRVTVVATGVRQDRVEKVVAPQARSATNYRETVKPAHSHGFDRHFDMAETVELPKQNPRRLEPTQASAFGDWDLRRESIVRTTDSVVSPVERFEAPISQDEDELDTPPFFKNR

## O=C(/C=C/c1ccc(O)cc1)C1CCC/C(=C\c2ccc(O)cc2)C1=O (centres unmarked) [Compound 1]
other
  melting point: 225 to 227 °C
Bacillus subtilis 168 [1]; Bs168
  IC50: 1.2 ± 0.5 µM
Bacillus subtilis 168 [1]; Bs168 cells
  MIC: 2.0 to 4.0 µg/mL
[2]
  Kd: 4 ± 1.1 µM

## O=C(CCc1ccc(O)cc1)c1cccc(Cc2ccc(O)cc2)c1O [Compound 2, 1-{2-Hydroxy-3-(4-hydroxybenzyl)phenyl}-3-(4-hydroxyphenyl)propan-1-one]
Bacillus subtilis 168 [3]; Bacillus subtilis, 168, treatment with 15 µM, read-out: inhibition of growth of B. subtilis (Bs168)
  inhibition at 15 µM: 21.5 ± 0.5%

## O=C(CCc1ccc(O)cc1)[C@@H]1CCC[C@H](Cc2ccc(O)cc2)C1=O [Compound 3, 2-(4-Hydroxybenzyl)-6-{3-(4-hydroxyphenyl)propanoyl}cyclohexan-1-one]
Bacillus subtilis 168 [3]; Bacillus subtilis, 168, 6 h, Bs168, agar dilution, 6 h, 37 °C, read-out: MIC
  MIC: 11 µM
Bacillus subtilis 168 [3]; Bacillus subtilis, 168, Bs168 cells, converted from µM, read-out: MIC (equivalent)
  MIC: ≤ 3.5 µg/mL
Bacillus subtilis 168 [3]; Bacillus subtilis, 168, Bs168, inhibition of proliferation
  IC50: 4.97 ± 0.01 µM
[4]; Streptococcus pneumoniae TIGR4, inhibition of proliferation
  IC50: 1 ± 0.01 µM
[4]; TIGR4, 24 h, Streptococcus pneumoniae TIGR4, agar dilution, 24 h, read-out: MIC
  MIC: 2 µM
[4]; TIGR4, S. pneumoniae, converted from µM, read-out: MIC (equivalent)
  MIC: ≤ 0.7 µg/mL
[5]
  GI50: 7 ± 2.35 µM
Z-ring in Bs 168 cells; DAPI
  effect on nucleoid separation: no effect on the nucleoid separation
Z-ring in Bs 168 cells; control 35 ± 17%
  dividing cells with a prominent Z-ring: 3 ± 3%
Z-ring in Sp TIGR4; DAPI
  effect on nucleoid separation: no effect on the nucleoid separation
Z-ring in Sp TIGR4; control 50%
  percentage of cells without a Z-ring: 73%
Membrane of Bs 168 cells
  effect on cell membrane: remains intact
[6]
  effect on cell morphology and membrane: no changes in the morphology
[7]
  Kd: 2.2 ± 0.3 µM
SpnFtsZ [8]
  effect on FtsZ polymerization (light scattering): inhibits FtsZ polymerization
SpnFtsZ [9]
  reduction of FtsZ pellet compared to control: 17%
SpnFtsZ [10]; 10 μM SpnFtsZ
  FtsZ aggregation (TEM): large aggregates were seen throughout the grid
SpnFtsZ [10]; control 2.1 ± 1.2 μm
  length of FtsZ filaments (TEM): 0.7 ± 0.6 μm
SpnFtsZ [11]
  average height of FtsZ aggregates (AFM): 233.2 ± 151.2 nm
[12]
  BsFtsZ aggregation (TEM): large aggregates of BsFtsZ
tubulin
  inhibition of tubulin polymerization: no significant inhibition
Alkaline phosphatase
  inhibition of alkaline phosphatase activity: no detectable inhibitory activity

## NC(=O)c1c(F)ccc(OCc2nc3cc(Cl)cnc3s2)c1F [PC190723 4, PC190723]
S. pneumoniae
  MIC: more than 64 µg/mL
S. pneumoniae; converted from µg/mL
  MIC: > 180 µM
